# Test system: S. pneumoniae
# Experiment: not given
# Conditions: cited from earlier work
row,Structure (SMILES),MIC [µg/mL]
1,Oc1nc(-c2ccccn2)nc2c1CN(Cc1cccc(F)c1)CC2 [Compound 321525],8
2,COc1cccc(CN2CCc3nc(-c4ccccn4)nc(O)c3C2)c1 [Compound 321528],32

# Test system: E. coli tolC mutants
# Experiment: not given
# Conditions: cited from earlier work
row,Structure (SMILES),MIC [µg/mL]
1,Oc1nc(-c2ccccn2)nc2c1CN(Cc1cccc(F)c1)CC2 [Compound 321525],8
2,COc1cccc(CN2CCc3nc(-c4ccccn4)nc(O)c3C2)c1 [Compound 321528],128

# Test system: E. faecalis
# Experiment: Broth microdilution MIC testing
# Assay type: cell-based, Enterococcus faecalis
# Conditions: E. faecalis
row,Structure (SMILES),MIC E. fae [µg/mL]
1,CC(C)Oc1ccc(CN2CCc3nc(-c4ccccn4)[nH]c(=O)c3C2)cc1 [Compound 323365],16
2,CC(C)(C)Oc1ccc(CN2CCc3nc(-c4ccccn4)[nH]c(=O)c3C2)cc1 [Compound 323366],8
3,O=c1[nH]c(-c2ccccn2)nc2c1CN(Cc1cccc(Br)c1Br)CC2 [Compound 323367],4

# Same assay, conditions: Enterococcus faecalis, read-out: MIC E. fae
row,Structure (SMILES),MIC [µg/mL]
1,O=C(Nc1ccc(Cl)cc1)N1CCc2nc(-c3ccccn3)[nH]c(=O)c2C1 [Compound 323368],> 128
2,O=c1[nH]c(-c2ccccn2)nc2c1CN(CCc1ccc(Cl)cc1)CC2 [Compound 323370],16
3,CC1CN(Cc2ccc(Cl)cc2)Cc2c1nc(-c1ccccn1)[nH]c2=O (stereo not shown) [Compound 332054],8
4,O=c1[nH]c(-c2ccccn2)nc2c1CCN(Cc1ccc(Cl)cc1)CC2 [Compound 332058],16

# Test system: E. coli tolC mutants
# Experiment: Broth microdilution MIC testing
# Assay type: cell-based, Escherichia coli
# Conditions: E. coli tolC mutants
row,Structure (SMILES),MIC E. coli tolC [µg/mL]
1,CC(C)Oc1ccc(CN2CCc3nc(-c4ccccn4)[nH]c(=O)c3C2)cc1 [Compound 323365],4
2,CC(C)(C)Oc1ccc(CN2CCc3nc(-c4ccccn4)[nH]c(=O)c3C2)cc1 [Compound 323366],4
3,O=c1[nH]c(-c2ccccn2)nc2c1CN(Cc1cccc(Br)c1Br)CC2 [Compound 323367],2

# Same assay, conditions: Escherichia coli, read-out: MIC E. coli tolC
row,Structure (SMILES),MIC [µg/mL]
1,O=C(Nc1ccc(Cl)cc1)N1CCc2nc(-c3ccccn3)[nH]c(=O)c2C1 [Compound 323368],> 128
2,O=c1[nH]c(-c2ccccn2)nc2c1CN(CCc1ccc(Cl)cc1)CC2 [Compound 323370],8
3,CC1CN(Cc2ccc(Cl)cc2)Cc2c1nc(-c1ccccn1)[nH]c2=O (stereo not shown) [Compound 332054],2
4,O=c1[nH]c(-c2ccccn2)nc2c1CCN(Cc1ccc(Cl)cc1)CC2 [Compound 332058],4

# Test system: H. influenzae
# Experiment: Broth microdilution MIC testing
# Assay type: cell-based, Haemophilus influenzae
# Conditions: H. influenzae
row,Structure (SMILES),MIC H. flu [µg/mL]
1,CC(C)Oc1ccc(CN2CCc3nc(-c4ccccn4)[nH]c(=O)c3C2)cc1 [Compound 323365],4
2,CC(C)(C)Oc1ccc(CN2CCc3nc(-c4ccccn4)[nH]c(=O)c3C2)cc1 [Compound 323366],4
3,O=c1[nH]c(-c2ccccn2)nc2c1CN(Cc1cccc(Br)c1Br)CC2 [Compound 323367],1

# Same assay, conditions: Haemophilus influenzae, read-out: MIC H. flu
row,Structure (SMILES),MIC [µg/mL]
1,O=C(Nc1ccc(Cl)cc1)N1CCc2nc(-c3ccccn3)[nH]c(=O)c2C1 [Compound 323368],> 128
2,O=c1[nH]c(-c2ccccn2)nc2c1CN(CCc1ccc(Cl)cc1)CC2 [Compound 323370],2
3,CC1CN(Cc2ccc(Cl)cc2)Cc2c1nc(-c1ccccn1)[nH]c2=O (stereo not shown) [Compound 332054],1
4,O=c1[nH]c(-c2ccccn2)nc2c1CCN(Cc1ccc(Cl)cc1)CC2 [Compound 332058],0.5

# Test system: E. faecalis
# Experiment: not given
# Conditions: cited from earlier work
row,Structure (SMILES),MIC [µg/mL]
1,Oc1nc(-c2ccccn2)nc2c1CN(Cc1cccc(F)c1)CC2 [Compound 321525],32
2,COc1cccc(CN2CCc3nc(-c4ccccn4)nc(O)c3C2)c1 [Compound 321528],128

# Test system: S. aureus
# Experiment: not given
# Conditions: cited from earlier work
row,Structure (SMILES),MIC [µg/mL]
1,Oc1nc(-c2ccccn2)nc2c1CN(Cc1cccc(F)c1)CC2 [Compound 321525],32
2,COc1cccc(CN2CCc3nc(-c4ccccn4)nc(O)c3C2)c1 [Compound 321528],> 128

# Test system: bacterial protein synthesis (aminoacylation/translation system)
# Experiment: aminoacylation/translation (A/T) assay
# Assay type: biochemical
# Conditions: A/T assay, Table 1; read-out: IC50
row,Structure (SMILES),IC50 [nM]
1,CC(C)Oc1ccc(CN2CCc3nc(-c4ccccn4)[nH]c(=O)c3C2)cc1 [Compound 323365],2270
2,CC(C)(C)Oc1ccc(CN2CCc3nc(-c4ccccn4)[nH]c(=O)c3C2)cc1 [Compound 323366],2470
3,O=c1[nH]c(-c2ccccn2)nc2c1CN(Cc1cccc(Br)c1Br)CC2 [Compound 323367],1890
4,O=C(Nc1ccc(Cl)cc1)N1CCc2nc(-c3ccccn3)[nH]c(=O)c2C1 [Compound 323368],470
5,O=c1[nH]c(-c2ccccn2)nc2c1CN(CCc1ccc(Cl)cc1)CC2 [Compound 323370],280
6,CC1CN(Cc2ccc(Cl)cc2)Cc2c1nc(-c1ccccn1)[nH]c2=O (stereo not shown) [Compound 332054],7400
7,O=c1[nH]c(-c2ccccn2)nc2c1CCN(Cc1ccc(Cl)cc1)CC2 [Compound 332058],560

# Same assay, conditions: original hits retested; read-out: IC50 (retested in the A/T assay)
row,Structure (SMILES),IC50 [nM]
1,Oc1nc(-c2ccccn2)nc2c1CN(Cc1cccc(F)c1)CC2 [Compound 321525],2800
2,COc1cccc(CN2CCc3nc(-c4ccccn4)nc(O)c3C2)c1 [Compound 321528],1200

# Test system: S. pneumoniae
# Experiment: Broth microdilution MIC testing
# Assay type: cell-based, Streptococcus pneumoniae
# Conditions: S. pneumoniae
row,Structure (SMILES),MIC S. pneumo [µg/mL]
1,CC(C)Oc1ccc(CN2CCc3nc(-c4ccccn4)[nH]c(=O)c3C2)cc1 [Compound 323365],4
2,CC(C)(C)Oc1ccc(CN2CCc3nc(-c4ccccn4)[nH]c(=O)c3C2)cc1 [Compound 323366],2
3,O=c1[nH]c(-c2ccccn2)nc2c1CN(Cc1cccc(Br)c1Br)CC2 [Compound 323367],2

# Same assay, conditions: Streptococcus pneumoniae, read-out: MIC S. pneumo
row,Structure (SMILES),MIC [µg/mL]
1,O=C(Nc1ccc(Cl)cc1)N1CCc2nc(-c3ccccn3)[nH]c(=O)c2C1 [Compound 323368],> 128
2,O=c1[nH]c(-c2ccccn2)nc2c1CN(CCc1ccc(Cl)cc1)CC2 [Compound 323370],4
3,CC1CN(Cc2ccc(Cl)cc2)Cc2c1nc(-c1ccccn1)[nH]c2=O (stereo not shown) [Compound 332054],2
4,O=c1[nH]c(-c2ccccn2)nc2c1CCN(Cc1ccc(Cl)cc1)CC2 [Compound 332058],2

# Test system: E. coli modified with PMBN
# Experiment: not given
# Conditions: cited from earlier work
row,Structure (SMILES),MIC [µg/mL]
1,Oc1nc(-c2ccccn2)nc2c1CN(Cc1cccc(F)c1)CC2 [Compound 321525],32
2,COc1cccc(CN2CCc3nc(-c4ccccn4)nc(O)c3C2)c1 [Compound 321528],32

# Test system: M. catarrhalis
# Experiment: Broth microdilution MIC testing
# Assay type: cell-based, Moraxella catarrhalis
# Conditions: not given
row,Structure (SMILES),MIC M. cat [µg/mL]
1,CC(C)Oc1ccc(CN2CCc3nc(-c4ccccn4)[nH]c(=O)c3C2)cc1 [Compound 323365],≤0.12
2,CC(C)(C)Oc1ccc(CN2CCc3nc(-c4ccccn4)[nH]c(=O)c3C2)cc1 [Compound 323366],≤0.12
3,O=c1[nH]c(-c2ccccn2)nc2c1CN(Cc1cccc(Br)c1Br)CC2 [Compound 323367],≤0.12

# Same assay, conditions: Moraxella catarrhalis
row,Structure (SMILES),MIC [µg/mL]
1,O=C(Nc1ccc(Cl)cc1)N1CCc2nc(-c3ccccn3)[nH]c(=O)c2C1 [Compound 323368],> 128
2,O=c1[nH]c(-c2ccccn2)nc2c1CN(CCc1ccc(Cl)cc1)CC2 [Compound 323370],≤ 0.12
3,CC1CN(Cc2ccc(Cl)cc2)Cc2c1nc(-c1ccccn1)[nH]c2=O (stereo not shown) [Compound 332054],≤ 0.12
4,O=c1[nH]c(-c2ccccn2)nc2c1CCN(Cc1ccc(Cl)cc1)CC2 [Compound 332058],≤ 0.12

# Test system: H. influenzae
# Experiment: not given
# Conditions: Haemophilus influenzae; cited from earlier work
row,Structure (SMILES),MIC [µg/mL]
1,Oc1nc(-c2ccccn2)nc2c1CN(Cc1cccc(F)c1)CC2 [Compound 321525],4
2,COc1cccc(CN2CCc3nc(-c4ccccn4)nc(O)c3C2)c1 [Compound 321528],8

# Test system: M. catarrhalis
# Experiment: not given
# Conditions: Moraxella. catarrhalis; cited from earlier work
row,Structure (SMILES),MIC [µg/mL]
1,Oc1nc(-c2ccccn2)nc2c1CN(Cc1cccc(F)c1)CC2 [Compound 321525],0.25
2,COc1cccc(CN2CCc3nc(-c4ccccn4)nc(O)c3C2)c1 [Compound 321528],2

# Test system: S. aureus
# Experiment: Broth microdilution MIC testing
# Assay type: cell-based, Staphylococcus aureus
# Conditions: S. aureus
row,Structure (SMILES),MIC S. aureus [µg/mL]
1,CC(C)Oc1ccc(CN2CCc3nc(-c4ccccn4)[nH]c(=O)c3C2)cc1 [Compound 323365],8
2,CC(C)(C)Oc1ccc(CN2CCc3nc(-c4ccccn4)[nH]c(=O)c3C2)cc1 [Compound 323366],8
3,O=c1[nH]c(-c2ccccn2)nc2c1CN(Cc1cccc(Br)c1Br)CC2 [Compound 323367],8

# Same assay, conditions: Staphylococcus aureus, read-out: MIC S. aureus
row,Structure (SMILES),MIC [µg/mL]
1,O=C(Nc1ccc(Cl)cc1)N1CCc2nc(-c3ccccn3)[nH]c(=O)c2C1 [Compound 323368],> 128
2,O=c1[nH]c(-c2ccccn2)nc2c1CN(CCc1ccc(Cl)cc1)CC2 [Compound 323370],16
3,CC1CN(Cc2ccc(Cl)cc2)Cc2c1nc(-c1ccccn1)[nH]c2=O (stereo not shown) [Compound 332054],4
4,O=c1[nH]c(-c2ccccn2)nc2c1CCN(Cc1ccc(Cl)cc1)CC2 [Compound 332058],16

# Test system: panel of bacteria
# Experiment: Antibacterial activity against the panel of bacteria (MIC, overall); for MIC (antibacterial activity grade): key: +: poor; ++: moderate; +++: good antibacterial activity
# Assay type: cell-based
# Conditions: Table 2
row,Structure (SMILES),MIC (antibacterial activity grade)
1,O=c1[nH]c(-c2ccccn2)nc2c1CN(CCc1ccc(Cl)cc1)CC2 [Compound 323370],+++
2,O=c1[nH]c(-c2ccccn2)nc2c1CCN(Cc1ccc(Cl)cc1)CC2 [Compound 332058],+++

# Same assay, conditions: Table 3
row,Structure (SMILES),MIC (antibacterial activity grade)
1,CC(C)Oc1ccc(CN2CCc3nc(-c4ccccn4)[nH]c(=O)c3C2)cc1 [Compound 323365],+++
2,CC(C)(C)Oc1ccc(CN2CCc3nc(-c4ccccn4)[nH]c(=O)c3C2)cc1 [Compound 323366],+++
3,O=c1[nH]c(-c2ccccn2)nc2c1CN(Cc1cccc(Br)c1Br)CC2 [Compound 323367],+++
4,CC1CN(Cc2ccc(Cl)cc2)Cc2c1nc(-c1ccccn1)[nH]c2=O (stereo not shown) [Compound 332054],+++

# Same assay, conditions: panel of bacteria
row,Structure (SMILES),antibacterial activity
1,O=C(Nc1ccc(Cl)cc1)N1CCc2nc(-c3ccccn3)[nH]c(=O)c2C1 [Compound 323368],complete loss of antibacterial activity

# Test system: E. coli modified with PMBN
# Experiment: Broth microdilution MIC testing
# Assay type: cell-based, Escherichia coli
# Conditions: E. coli modified with PMBN
row,Structure (SMILES),MIC E. coli +PMBP [µg/mL]
1,CC(C)Oc1ccc(CN2CCc3nc(-c4ccccn4)[nH]c(=O)c3C2)cc1 [Compound 323365],4
2,CC(C)(C)Oc1ccc(CN2CCc3nc(-c4ccccn4)[nH]c(=O)c3C2)cc1 [Compound 323366],2
3,O=c1[nH]c(-c2ccccn2)nc2c1CN(Cc1cccc(Br)c1Br)CC2 [Compound 323367],8

# Same assay, conditions: Escherichia coli, read-out: MIC E. coli +PMBP
row,Structure (SMILES),MIC [µg/mL]
1,O=C(Nc1ccc(Cl)cc1)N1CCc2nc(-c3ccccn3)[nH]c(=O)c2C1 [Compound 323368],> 128
2,O=c1[nH]c(-c2ccccn2)nc2c1CN(CCc1ccc(Cl)cc1)CC2 [Compound 323370],8
3,CC1CN(Cc2ccc(Cl)cc2)Cc2c1nc(-c1ccccn1)[nH]c2=O (stereo not shown) [Compound 332054],1
4,O=c1[nH]c(-c2ccccn2)nc2c1CCN(Cc1ccc(Cl)cc1)CC2 [Compound 332058],4

# From publication PMC3353862
